According to US5571807A, “1,5 benzothiazepinone dervatives their preparation and pharmaceutical use” (Istituto Luso Farmaco d'Italia S.p.A., priority 1990, dated 1996):
Counter-ions that a name gives are not always drawn.

What was measured:
[1] = target: 3H-diltiazem binding sites in the cardiac tissue (Homo sapiens, UniProt Q13936); test: biochemical; conditions: displacement of 3H-diltiazem, read-out: receptorial binding (pIC50) (converted)
[2] = Pharmacokinetic studies in the conscious incannulated rat; conditions: in vivo, po, 50 mg/kg/os, read-out: pharmacokinetics in the rat t 1/2
[3] = target: rabbit isolated atrium (Oryctolagus cuniculus, UniProt P15381); test: cell-based; conditions: inhibition of tonic contraction; read-out: rabbit isolated atrium (pA2) (converted)
[4] = system: vasopressine-induced angina in the rat; test: Vasopressine-induced angina in the rat; format: in vivo; conditions: for ED50: iv, read-out: angina vasopressine test rat (iv) ED50
[5] = humans; cited from earlier work

Chain of 3H-diltiazem binding sites in the cardiac tissue (Q13936 whole entry): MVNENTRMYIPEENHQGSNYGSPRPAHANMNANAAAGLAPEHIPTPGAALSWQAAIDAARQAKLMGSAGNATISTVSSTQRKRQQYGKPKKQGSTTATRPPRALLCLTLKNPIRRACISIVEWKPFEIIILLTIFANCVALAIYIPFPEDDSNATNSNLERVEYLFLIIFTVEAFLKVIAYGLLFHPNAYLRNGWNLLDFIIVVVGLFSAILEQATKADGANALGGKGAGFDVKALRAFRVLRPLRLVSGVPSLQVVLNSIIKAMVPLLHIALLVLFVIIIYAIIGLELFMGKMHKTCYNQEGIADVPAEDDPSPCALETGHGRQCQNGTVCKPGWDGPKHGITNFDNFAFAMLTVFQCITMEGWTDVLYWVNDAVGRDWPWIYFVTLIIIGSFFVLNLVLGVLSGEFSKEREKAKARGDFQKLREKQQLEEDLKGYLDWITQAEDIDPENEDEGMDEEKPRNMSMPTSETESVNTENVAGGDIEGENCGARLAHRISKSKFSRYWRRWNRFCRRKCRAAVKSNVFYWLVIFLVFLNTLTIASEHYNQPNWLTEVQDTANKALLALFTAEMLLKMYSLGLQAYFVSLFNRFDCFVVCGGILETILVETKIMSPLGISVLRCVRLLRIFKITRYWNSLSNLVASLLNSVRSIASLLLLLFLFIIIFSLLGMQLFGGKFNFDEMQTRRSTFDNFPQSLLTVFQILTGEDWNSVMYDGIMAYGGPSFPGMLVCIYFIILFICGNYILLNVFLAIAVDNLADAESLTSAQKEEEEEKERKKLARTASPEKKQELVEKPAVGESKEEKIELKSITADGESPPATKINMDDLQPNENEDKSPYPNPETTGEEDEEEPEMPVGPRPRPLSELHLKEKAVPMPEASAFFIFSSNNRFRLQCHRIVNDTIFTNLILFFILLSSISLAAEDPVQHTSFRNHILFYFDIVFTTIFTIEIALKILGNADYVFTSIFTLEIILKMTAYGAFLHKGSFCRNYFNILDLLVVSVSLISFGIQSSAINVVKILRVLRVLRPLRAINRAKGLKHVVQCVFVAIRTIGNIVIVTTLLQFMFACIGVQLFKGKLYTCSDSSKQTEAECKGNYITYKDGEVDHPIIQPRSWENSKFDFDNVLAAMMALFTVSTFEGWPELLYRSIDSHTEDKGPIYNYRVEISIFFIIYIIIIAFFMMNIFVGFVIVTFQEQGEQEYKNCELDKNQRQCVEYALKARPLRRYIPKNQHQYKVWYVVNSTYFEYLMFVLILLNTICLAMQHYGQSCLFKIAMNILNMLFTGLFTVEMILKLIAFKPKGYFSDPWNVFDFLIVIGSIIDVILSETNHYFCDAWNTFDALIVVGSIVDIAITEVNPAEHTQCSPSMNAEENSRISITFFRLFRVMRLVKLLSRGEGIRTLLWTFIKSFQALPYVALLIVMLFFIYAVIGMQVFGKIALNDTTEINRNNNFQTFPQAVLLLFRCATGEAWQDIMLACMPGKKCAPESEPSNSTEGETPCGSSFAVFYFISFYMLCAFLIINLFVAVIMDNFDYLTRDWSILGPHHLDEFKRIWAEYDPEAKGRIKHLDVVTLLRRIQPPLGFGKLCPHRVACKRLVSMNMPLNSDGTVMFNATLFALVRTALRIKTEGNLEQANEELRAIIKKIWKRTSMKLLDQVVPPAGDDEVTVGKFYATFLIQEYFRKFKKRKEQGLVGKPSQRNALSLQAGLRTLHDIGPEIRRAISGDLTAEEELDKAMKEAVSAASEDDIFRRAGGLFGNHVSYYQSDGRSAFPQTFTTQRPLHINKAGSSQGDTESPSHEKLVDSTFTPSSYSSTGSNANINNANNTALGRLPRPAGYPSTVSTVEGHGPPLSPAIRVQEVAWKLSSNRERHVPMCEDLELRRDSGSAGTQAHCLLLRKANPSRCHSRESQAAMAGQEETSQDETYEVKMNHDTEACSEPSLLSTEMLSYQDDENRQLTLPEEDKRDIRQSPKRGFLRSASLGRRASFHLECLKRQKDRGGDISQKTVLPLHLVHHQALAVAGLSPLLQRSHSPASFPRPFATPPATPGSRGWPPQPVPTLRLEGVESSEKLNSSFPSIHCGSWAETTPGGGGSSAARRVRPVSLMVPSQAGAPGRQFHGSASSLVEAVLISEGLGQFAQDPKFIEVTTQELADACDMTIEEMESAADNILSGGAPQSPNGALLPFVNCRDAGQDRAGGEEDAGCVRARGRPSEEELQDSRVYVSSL
Chain of 3H-diltiazem binding sites in the cardiac tissue (Q08289 whole entry partner): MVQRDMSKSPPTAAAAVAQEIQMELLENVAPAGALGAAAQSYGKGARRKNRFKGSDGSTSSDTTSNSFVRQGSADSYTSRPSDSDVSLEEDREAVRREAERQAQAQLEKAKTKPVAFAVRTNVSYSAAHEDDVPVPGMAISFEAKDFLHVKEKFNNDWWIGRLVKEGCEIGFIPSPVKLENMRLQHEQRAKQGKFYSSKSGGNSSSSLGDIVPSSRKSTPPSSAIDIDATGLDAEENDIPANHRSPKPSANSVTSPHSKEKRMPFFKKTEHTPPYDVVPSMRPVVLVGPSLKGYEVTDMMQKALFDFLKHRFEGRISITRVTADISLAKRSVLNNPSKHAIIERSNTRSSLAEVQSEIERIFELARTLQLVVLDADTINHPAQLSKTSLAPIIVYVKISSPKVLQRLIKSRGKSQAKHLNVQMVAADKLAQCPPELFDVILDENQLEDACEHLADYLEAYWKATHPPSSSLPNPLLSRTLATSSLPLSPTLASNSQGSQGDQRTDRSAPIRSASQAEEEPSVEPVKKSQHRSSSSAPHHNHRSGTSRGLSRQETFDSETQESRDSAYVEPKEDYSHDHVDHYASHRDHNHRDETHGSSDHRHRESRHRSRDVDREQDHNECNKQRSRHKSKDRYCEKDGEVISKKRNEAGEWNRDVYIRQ
Chain of 3H-diltiazem binding sites in the cardiac tissue (P54289 25-957 partner limits assumed): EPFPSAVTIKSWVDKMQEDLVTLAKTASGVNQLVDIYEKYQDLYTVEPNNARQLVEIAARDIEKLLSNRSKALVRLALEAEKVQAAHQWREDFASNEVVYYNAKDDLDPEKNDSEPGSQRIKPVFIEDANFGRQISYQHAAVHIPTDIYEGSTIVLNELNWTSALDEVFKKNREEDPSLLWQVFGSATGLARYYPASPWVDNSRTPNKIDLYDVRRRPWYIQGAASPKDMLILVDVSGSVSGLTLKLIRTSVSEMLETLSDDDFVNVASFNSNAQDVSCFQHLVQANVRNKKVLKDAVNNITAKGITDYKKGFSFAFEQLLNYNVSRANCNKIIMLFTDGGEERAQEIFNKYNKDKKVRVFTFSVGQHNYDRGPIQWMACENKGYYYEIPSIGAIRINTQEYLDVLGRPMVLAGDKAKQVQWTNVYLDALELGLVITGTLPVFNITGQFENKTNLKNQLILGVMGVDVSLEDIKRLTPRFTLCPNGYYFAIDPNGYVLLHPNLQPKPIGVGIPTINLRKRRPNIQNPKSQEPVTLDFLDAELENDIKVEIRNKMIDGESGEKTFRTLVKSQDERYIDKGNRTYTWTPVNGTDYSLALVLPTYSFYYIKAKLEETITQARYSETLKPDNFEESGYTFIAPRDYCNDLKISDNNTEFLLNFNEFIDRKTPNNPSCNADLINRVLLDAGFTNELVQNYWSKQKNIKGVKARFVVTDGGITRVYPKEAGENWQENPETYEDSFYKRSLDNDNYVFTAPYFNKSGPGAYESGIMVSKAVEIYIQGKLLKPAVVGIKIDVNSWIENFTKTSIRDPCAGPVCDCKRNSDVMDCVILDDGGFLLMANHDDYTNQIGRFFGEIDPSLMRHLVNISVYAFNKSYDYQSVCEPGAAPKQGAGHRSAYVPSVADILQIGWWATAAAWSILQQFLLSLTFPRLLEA
Chain of 3H-diltiazem binding sites in the cardiac tissue (P54289 958-1103 partner limits assumed): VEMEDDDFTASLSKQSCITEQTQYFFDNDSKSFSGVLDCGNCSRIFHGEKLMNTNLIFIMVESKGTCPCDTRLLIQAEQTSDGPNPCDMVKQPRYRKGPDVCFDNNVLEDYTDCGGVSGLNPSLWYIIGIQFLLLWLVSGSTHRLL

| IC50 [1] [µM] | half-life [2] [h] | Kb [3] [µM] | SMILES | angina vasopressine test rat (iv) duration [4] [min] | ED50 [4] [mg/kg] | elimination half-life [5] |
| --- | --- | --- | --- | --- | --- | --- |
| 0.0646 | 1.53 | 0.0501 | COc1ccc([C@@H]2Sc3ccccc3N(CCN(C)C(C)C)C(=O)[C@@H]2OC(C)=O)cc1 [Compound A, Cis(+)-3-acetyloxy-2,3-dihydro-5-(2-N-isopropyl-N-methylaminoethyl)-2-(4-methoxyphenyl)-1,5-benzothiazepin-4(5H)-one hydrobromide] | 78 | 0.49 | – |
| – | 0.95 | – | COc1ccc([C@@H]2Sc3ccccc3N(CCN(C)C)C(=O)[C@@H]2OC(C)=O)cc1 [Diltiazem, reference compound] | – | 0.45 | short elimination half-life |
| 0.0302 | 1.18 | 0.0631 | COc1ccc([C@@H]2Sc3ccccc3N(CC(C)CN(C)C)C(=O)[C@@H]2OC(C)=O)cc1.O=C(O)C(=O)O (single isomer, unassigned; diastereoisomer b) [Compound B, Cis(+)-3-acetyloxy-2,3-dihydro-5-(2-methyl-3-dimethylaminopropyl)-2-(4-methoxyphenyl)-1,5-benzothiazepin-4(5H)-one oxalate (diastereoisomer B)] | 72 | 0.54 | – |
